# Experimental data: PMC8545111, “Molecular Basis of the Versatile Regulatory Mechanism of HtrA-Type Protease AlgW from Pseudomonas aeruginosa” (mBio, 2021)
# “And” between values parts separate entries of the source, which are not always exact repeats. Identical values can stand only once. Non-standard residues stand in square brackets, D forms with d. Residues, ends and D or L forms follow the SMILES beside them. *: point of attachment. pNA = O=[N+]([O-])c1ccc(N*)cc1; 2Abz = Nc1ccccc1C(=O)O
# B1: AlgW_(52-389), periplasmic soluble domain of AlgW for crystallization (enzyme)
# chain: PVSYANAVSRAAPAVANLYTTKMVSKPSHPLFDDPMFRRFFGDNLPQQKRMESSLGSAVIMSAEGYLLTNNHVTAGADQIIVALRDGRETIAQLVGSDPETDLAVLKIDLKNLPAMTLGRSDGIRTGDVCLAIGNPFGVGQTVTMGIISATGRNQLGLNTYEDFIQTDAAINPGNSGGALVDAAGNLIGINTAIFSKSGGSQGIGFAIPTKLALEVMQSIIEHGQVIRGWLGVEVKALTPELAESLGLGETAGIVVAGVYRDGPAARGGLLPGDVILTIDKQEASDGRRSMNQVARTRPGQKISIVVLRNGQKVNLTAEVGLRPPPAPAPQQKQDGGE
# notes: Vector pET22b-(LEVLFQ/GP)-6xHis has a PreScission site that allows removal of the His tag; source: E. coli BL21(DE3), purified (Ni-NTA, Superdex-75 SEC)
# B2: AlgWS227A (inactive mutant of the periplasmic soluble domain of AlgW, for crystallization) (enzyme)
# chain: PVSYANAVSRAAPAVANLYTTKMVSKPSHPLFDDPMFRRFFGDNLPQQKRMESSLGSAVIMSAEGYLLTNNHVTAGADQIIVALRDGRETIAQLVGSDPETDLAVLKIDLKNLPAMTLGRSDGIRTGDVCLAIGNPFGVGQTVTMGIISATGRNQLGLNTYEDFIQTDAAINPGNAGGALVDAAGNLIGINTAIFSKSGGSQGIGFAIPTKLALEVMQSIIEHGQVIRGWLGVEVKALTPELAESLGLGETAGIVVAGVYRDGPAARGGLLPGDVILTIDKQEASDGRRSMNQVARTRPGQKISIVVLRNGQKVNLTAEVGLRPPPAPAPQQKQDGGE
# notes: AlgW of Pseudomonas aeruginosa, residues 52-389 (construct for crystallization), catalytic serine S227 changed to alanine; source: E. coli BL21(DE3), purified (Ni-NTA, Superdex-75 SEC)
# Experiments:
# [1] = system: DegS; assay: Rse- protease degradation assay; assay type: biochemical, Escherichia coli; settings: DegS 25 μM, phosphate buffer pH 7.5, 37°C
# Procedure: (§1) FIG 1 Degradation of MucA and MucB by AlgW in response to the peptides and lipid signals. (A and B) MucB/RseB (130 μM) was cleaved by AlgW/DegS (25 μM) in the presence of different agonist combinations, including lipid-A (100 μM), lipid-like detergent DDM (400 μM), decapeptide SVRDELRWVF (100 μM), and decapeptide combined with lipid-A or DDM. (C and D) MucB/RseB-protected MucA^peri/RseA^peri degradation by AlgW/DegS in the presence of different lengths of the activating peptides in a time-dependent manner. MucA^peri (125 μM), AlgW (25 μM), MucB (130 μM), activation peptides (tripeptide WVF or decapeptide SVRDELRWVF, 100 μM), and lipid-A (100 μM) were incubated at 37°C in a time-dependent manner in buffer (25 mM Tris-HCl pH 7.5, 150 mM NaCl). Similarly, RseA^peri (125 μM) was cleaved by DegS (25 μM) in the presences of RseB (130 μM), activation peptides (tripeptide YYF or decapeptide DNRDGNVYYF, 100 μM), and lipid-A (100 μM) at 37°C in a time-dependent manner in a phosphate buffer containing 50 mM NaHPO4 (pH 7.5), 200 mM NaCl, 10% glycerol, and 4 mM EDTA. (E and F) MucA^peri/RseA^peri was cleaved by AlgW/DegS in the presence of different agonist combinations in a time-dependent manner. MucA^peri (125 μM), AlgW (25 μM), activation decapeptide SVRDELRWVF (100 μM), and lipid-A (100 μM) were incubated at 37°C in a time-dependent manner in buffer. […]
# [2] = system: AlgW; assay: Muc- protease degradation assay; assay type: biochemical, Pseudomonas aeruginosa; settings: MucB 130 μM, AlgW 25 μM; lipid-A 100 μM, DDM 400 μM or decapeptide 100 μM; 25 mM Tris-HCl pH 7.5, 150 mM NaCl, 37°C; 30 min; gel bands
# Procedure: as §1
# [3] = system: AlgW; assay: AlgW activation by agonist gradient (agonists versus velocity), saturated Abz-VLAG-pNA; assay type: biochemical, Pseudomonas aeruginosa; settings: 100 μM Abz-VLAG-pNA, 200 nM AlgW
# Procedure: (§2) FIG 2 Determination of enzyme apparent kinetic parameters of dual-signal-activated AlgW. (A) Activity assay of tripeptide or decapeptide-activated AlgW using the quenched fluorescent substrates Abz-VLAG-pNA, Abz-TVAW-pNA, and Abz-AAAA-pNA. All assays were placed in a buffer containing 25 mM Tris (pH 7.5) and 150 mM NaCl at 37°C for 1 h by adding 100 μM substrate, 200 nM AlgW, and 10 mM agonist peptides (tripeptide WVF or decapeptide SVRDELRWVF). (B) The apparent Michaelis-Menten parameters of AlgW cleavage quenched fluorescent substrates Abz-VLAG-pNA (100 μM) under the condition of peptide or lipid activation. (C) The activity assay of peptide or DDM activated AlgW using the saturated quenched fluorescent substrates Abz-VLAG-pNA. Under the gradient of peptide or DDM concentration,100 μM substrate and 200 nM AlgW were coincubated with or without 400 μM DDM or 10 mM agonist peptides in a buffer containing 25 mM Tris (pH 7.5) and 150 mM NaCl at 37°C for 1 h. The final assay volume of all experiments was 100 μl, and the appearance of fluorescent products was monitored at 60-s intervals at fluorescence wavelengths of λex = 310 nm and λem = 420 nm. […] The Kcat for the AlgW trimer was calculated by Kcat = Vmax/(Etotal), (Etotal) = 200/3 nM trimers. […]
# (§3) For the enzyme mechanism of AlgW (30–389) and mutants, two internally quenched fluorescent peptide substrates incorporating the peptidase cleavage site of MucA/MucB, Abz-VLAG-pNA and Abz-TVAW-pNA, were designed and synthesized (GL Biochem Shanghai Ltd., China). In the intact peptide, the fluorescence of the anthraniloyl group is quenched by the P-nitroaniline (Abz is a fluorogenic group, and pNA is a quencher of fluorescence). This quenched fluorescence is liberated upon cleavage of peptide by 200 nM AlgW and mutants (200/3 nM for trimer), resulting in increased fluorescence that can then be monitored fluorometrically. […] The fluorescent degradation products were monitored at 60-s intervals at fluorescence wavelength—λex = 310 nm, λem = 420 nm ([41]). […]
# [4] = molecular target: T1, AlgW (Pseudomonas aeruginosa, UniProt Q9HVX1); assay: Activation of 200 nM AlgW cleavage of 100 μM Abz-VLAG-pNA by a DDM gradient without agonist peptide, 25 mM Tris pH 7.5, 150 mM NaCl, 37°C, Hill-type fit.; assay type: biochemical; settings: n = 3; read-out: Half-Maximal Activation concentration (μM), DDM gradient
# T1 construct: soluble periplasmic region, residues 30-389, pET22b with PreScission-cleavable 6xHis; trimer
# Procedure: as §2, with “Under the gradient of peptide or DDM concentration,100 μM substrate and 200 nM AlgW were coincubated with or without 400 μM DDM or 10 mM agonist peptides in a buffer containing 25 mM Tris (pH 7.5) and 150 mM NaCl at 37°C for 1 h.” left out
# In the presence of a fixed amount of AlgW and saturated substrate, we measured the initial rates of AlgW at various concentrations of decapeptide or DDM (Fig. 2C). […]
# [5] = system: T2, AlgW-DegS-LA (63–78); assay: Fluorogenic Abz-VLAG-pNA cleavage by peptide-activated AlgW and LA loop mutants (200 nM), 25 mM Tris pH 7.5, 150 mM NaCl, 37°C, Michaelis-Menten fit.; assay type: biochemical; settings: n = 3
# T2 construct: residues 30-389; LA loop 76-97 replaced by the corresponding region 63-78 of DegS
# Procedure: Based on the identified MucA and MucB cleavage sites for AlgW ([6], [13]), self-quenching fluorogenic tetrapeptides derived from 134-VLAG-137 of MucA (Abz-VLAG-pNA), 211-TVAW-214 of MucB (Abz-TVAW-pNA), and alanine tetrapeptide (Abz-AAAA-pNA) were synthesized and subjected to real-time measurement of AlgW proteolytic activity in the presence of excessive peptides (10 mM) (Fig. 2A). Compared with the negative-control group (using Abz-AAAA-pNA substrate), both Abz-VLAG-pNA and Abz-TVAW-pNA could be efficiently cleaved by AlgW. […]
# as §3
# [6] = molecular target: the molecule itself; assay: crystal structure; protein mixed with peptide activator (tripeptide WVF or decapeptide …) prior to crystallization; hanging-drop vapor diffusion at 18°C; molecular replacement
# T1 sequence (Q9HVX1 entry or part of it): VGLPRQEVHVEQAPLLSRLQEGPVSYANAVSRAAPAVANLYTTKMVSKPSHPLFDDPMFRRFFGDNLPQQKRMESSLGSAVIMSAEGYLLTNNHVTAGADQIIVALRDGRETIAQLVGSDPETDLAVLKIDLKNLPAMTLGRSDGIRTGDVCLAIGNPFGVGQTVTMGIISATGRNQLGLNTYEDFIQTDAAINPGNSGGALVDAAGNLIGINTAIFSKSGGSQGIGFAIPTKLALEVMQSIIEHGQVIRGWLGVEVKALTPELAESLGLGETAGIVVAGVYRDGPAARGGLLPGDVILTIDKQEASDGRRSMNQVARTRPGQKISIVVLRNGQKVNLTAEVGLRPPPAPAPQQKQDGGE
molecule,measurement,setting,value
lipid-A,RseA^peri degradation by DegS,"[1]; RseA^peri 125 μM, lipid-A 100 μM with or without decapeptide DNRDGNVYYF 100 μM",did not display obvious direct or cooperative activation
same,MucB cleavage by AlgW,[2],could be activated
"CCCCCCCCCCCCO[C@@H]1O[C@H](CO)[C@@H](O[C@H]2O[C@H](CO)[C@@H](O)[C@H](O)[C@H]2O)[C@H](O)[C@H]1O [DDM, N-dodecyl-β-D-maltopyranoside]",Maximal cleavage activity,"[3]; DDM gradient with 10 mM decapeptide (AlgW+Decapeptide), Tris pH 7.5, 37°C, 1 h",717.8 ± 15.07 µM/min
same,Hill constants,[3]; gradient of the agonist alone,1.43 and 1.43 ± 0.22
same,EC50,"[3]; gradient of the agonist alone, Tris pH 7.5, 37°C, Hill fit, three independent determinations, read-out: Half-Maximal Activation concentration",92 ± 12.4 µM
same,MucB cleavage by AlgW,[2],could be activated
same,EC50,[4],92 ± 12.4 µM
"CC(C)C[C@H](NC(=O)[C@@H](NC(=O)c1ccccc1N)C(C)C)C(=O)N[C@@H](C)C(=O)NCC(=O)Nc1ccc([N+](=O)[O-])cc1 [Abz-VLAG-pNA, anthraniloyl-Val-Leu-Ala-Gly-p-nitroaniline (quenched fluorogenic tetrapeptide, MucA 134-137)] (H-[2Abz]VLAG-pNA)",Km,[5],12 ± 2.85 µM
DNRDGNVYYF,RseB cleavage by DegS,"[1]; RseB 130 μM, decapeptide 100 μM",no proteolysis was noticed
B1,stoichiometry N,[6],3
B2,stoichiometry N,[6],3
